The test system of data set [1] is 293T human renal epithelial cells. Description: High content imaging: entry of conjugates into 293T cells. It counts as cell-based. As to conditions: 100 nM, 30 min 37°C, normal cells. As for the experimental part: (§1) In this experiment, the entry of conjugate AP1 provided by the present disclosure and comparative conjugate comparative AP10 into different cells was observed by a PerkinElmer High Content Imaging system (Operatta).
(§2) U118MG glioma cells, SVGp12 normal astrocytes, T98G human brain glioma cells, U251 human glioma cells, A549 human non-small cell lung cancer cells, MCF-7 human breast cancer cells, and 293T human kidney epithelial cells were all purchased from the Shanghai Cell Bank of Chinese Academy of Sciences. […] The supernatant was aspirated and DPBS buffer (purchased from Thermo Fisher) was added to wash the plate 2 times (100 μL each time).
(§3) Conjugate AP1 prepared above and yeast tRNA were respectively formulated into conjugate solution 2A with DMEM medium, and the conjugate solution 2A comprised yeast tRNA at a final concentration of 100 μg/mL and conjugate AP1 at a final concentration of 100 nM. […]
(§4) Normalization was performed according to the mean fluorescence intensity of control group 2Y, that is, subtracting the mean fluorescence intensity of control group 2Y from the fluorescence intensity of test group 2X before performing imaging.

The subject of data set [2] is U118MG glioma subcutaneous tumor. Description: In vivo distribution in U118MG cell subcutaneous tumor model mice (Experimental Example 4). Further details: species or system NOD-SCID mice. As to conditions: mouse, in vivo. As for the experimental part: U118MG human glioma cells in the logarithmic growth phase were selected and digested (0.25% pancreatic enzyme).
The mice were further fed for 20 days after injection.
The mice inoculated with U118MG above were randomly divided into 3 groups (4 mice per group). For the 4 mice per group, the administration volume was calculated according to 10 μL/g body weight, and AP1, AP2 and comparative AP11 were respectively administered to different groups of mice by tail vein injection and designated as test group 4A1, test group 4A2 and control group 4A3. Thus, the administration dosage of each mouse was 3 mg/kg (based on aptamer). Another mouse inoculated with U118MG above was administered with 1×DMEM medium by tail vein injection (the administration volume was 10 μL/g body weight), and designated as blank control group 4Y.

Data set [3] deals with U118-MG glioma cells. Description: Flow cytometry: entry of conjugates into U118-MG glioma cells in vitro. Format: cell-based, human. As to conditions: for relative fluorescence difference R: R=(MFIAP1−MFICAP10)/MFICAP10; for mean fluorescence intensity (MFI): 1 h 37°C, yeast tRNA 100 μg/mL, flow cytometry. As for the experimental part: U118MG cells were seeded into a 96-well plate at 5×10^5 cells/well. Conjugate AP1 prepared above and yeast tRNA were respectively formulated into conjugates solution 1A, 1B, 1C, 1D, 1E, 1F, 1G, 1H, and 1I with DMEM medium, and these conjugate solutions 1A-1I comprised yeast tRNA at a final concentration of 100 μg/mL and respectively comprised conjugate AP1 at final concentrations of 5 nM, 10 nM, 20 nM, 40 nM, 60 nM, 80 nM, 100 nM, 150 nM, 200 nM, and […].
Control conjugate comparative AP10 prepared above and yeast tRNA were respectively formulated into conjugates solution 1A′, 1B′, 1C′, 1D′, 1E′, 1F′, 1G′ 1H′, and 1I′ with DMEM medium, and these conjugate solutions 1A′-1I′ comprised yeast tRNA at a final concentration of 100 μg/mL and respectively comprised control conjugate comparative AP10 at final concentrations of 5 nM, 10 nM, 20 nM, 40 nM, 60 nM, 80 nM, 100 nM, 150 nM, 200 nM, and […].
The aforementioned culture wells containing U118MG cells were respectively added with the conjugate solutions 1A-1I above in an amount of 200 μL/well and designated as test group 1A-test group 1I. The aforementioned culture wells containing U118MG cells were respectively added with the conjugate solution 1A′-1I′ above in an amount of 200 μL/well and designated as control group 1A′-control group 1I′. Another culture well containing U118MG cells was added with 200 μL DMEM medium containing yeast tRNA at a final concentration of 100 μg/mL and designated as blank control group 1J. The 96-well plate containing the above test groups and the blank control group were incubated at 37° C. for 1 h in the dark; after incubation, the supernatant of the reaction mixture of each test group and the blank control group was aspirated, and DPBS buffer (purchased from Thermo Fisher) was added to wash the plate 3 times (100 μL each time). After the washing solution was aspirated, each culture well was added with 100 μL DMEM medium to obtain a cell suspension. The supernatant was removed by centrifugation and then 500 μL DPBS buffer was added to re-suspend the cells. Flow cytometry analysis was performed with flow cytometer (BD Biosciences): 10,000 cells in each test group or the blank control group were analyzed, the fluorescence intensity distribution was determined and the mean fluorescence intensity (MFI, a.u.) was calculated. Furthermore, the mean fluorescence intensity corresponding to each final concentration of conjugates is listed in Table 4 below for comparison, and the relative fluorescence difference R is calculated according to the following equation: R=(MFIAP1−MFICAP10)/MFICAP10.
Therein, MFIAP1 represents mean fluorescence intensity of conjugate AP1 in U118-MG glioma cells, and MFICAP10 represents mean fluorescence intensity of comparative AP10 in U118-MG glioma cells.

For data set [4], the system named is U118MG glioma cells. Description: High content imaging: entry of conjugates into U118MG glioma cells. Format: cell-based, human. Conditions: 100 nM, 30 min 37°C, normalized to control group 2Y. As for the experimental part: as §1, §2, §3, §4

One substance from US20250325675A1, “APTAMER, CONJUGATE, COMPOSITION, METHOD FOR PREPARING SAME, AND USE THEREOF” (priority 2022, published 2025) can be followed below.

{Cy5} = cyanine 5 fluorescent dye

With “CY5-CfUfGGAGUfUfCfAGACfGUfGUfUfGCfUfCfUfUfCfCfGAUfCfUfCf (CUGGAGUUCAGACGUGUUGCUCUUCCGAUCUC; 2'-fluoro at CU, RNA at AG, 5' {Cy5}, backbone not given here) [AP1]”, the “Cy5 fluorescence signal in cells” value is “nor the 293T human renal epithelial cells showed any fluorescence signal” in data set [1] and “strong Cy5 fluorescence signal” in data set [4]. Besides, in data set [2], the “fluorescence signal in mice / at site of tumor inoculation” value was “strong fluorescence signal at the sites of tumor inoculation”. The “relative fluorescence difference R” value in data set [3] (5 nM) amounted to 9.37; in data set [3] (10 nM) it was 6.47; in data set [3] (20 nM), 5.18; in data set [3] (40 nM) it was 2.25; in data set [3] (60 nM) it was 2.53; in data set [3] (80 nM), 2.71. Also, the “relative fluorescence difference R” value was 1.88 in data set [3] (100 nM), 2.17 in data set [3] (150 nM), 3.23 in data set [3] (200 nM) and 2.91 in data set [3] (500 nM). The “mean fluorescence intensity compared with comparative AP10” value in data set [3] (at different concentrations (5-500 nM)) is reported as “significantly higher mean fluorescence intensity”. Further, the “mean fluorescence intensity (MFI)” value in data set [3] (conjugate 5 nM) is reported as 263.4 a.u; in data set [3] (conjugate 10 nM), 503.4 a.u; in data set [3] (conjugate 20 nM), 1089.4 a.u; in data set [3] (conjugate 40 nM), 1440.4 a.u; in data set [3] (conjugate 60 nM), 2355.4 a.u; in data set [3] (conjugate 80 nM), 2921.4 a.u. Moreover, the “mean fluorescence intensity (MFI)” value in data set [3] (conjugate 100 nM) turned out to be 3360.4 a.u; in data set [3] (conjugate 150 nM), 3969.4 a.u; in data set [3] (conjugate 200 nM), 7895.4 a.u; in data set [3] (conjugate 500 nM), 15770.4 a.u.
